Test results published in the NIST ThermoML archive (doi:10.1016/j.jct.2017.09.020).
± gives the expanded uncertainty stated by the source.

Settings: Liquid, Ebulliometric method (Recirculating still)

Compound	vapor or sublimation pressure (389.1 K) [kPa]	vapor or sublimation pressure (404.15 K) [kPa]	vapor or sublimation pressure (413.57 K) [kPa]	vapor or sublimation pressure (417.53 K) [kPa]	vapor or sublimation pressure (433.71 K) [kPa]	vapor or sublimation pressure (443.3 K) [kPa]
CCCCCCCCCC(=O)OC [methyl decanoate]	2 ± 0.21	4 ± 0.42	6 ± 0.63			
CCCCCCCCCCCC(=O)OC [methyl dodecanoate]				2 ± 0.21	4 ± 0.42	6 ± 0.63
